Results as given in patent US20090291857A1, “METHODS TO IDENTIFY INHIBITORS OF THE UNFOLDED PROTEIN RESPONSE” (THE BOARD OF TRUSTEES OF THE LELAND STANFORD JUNIOR …, priority 2006, published 2009).

Experiments:
ATF6 = ATF6 cleavage in hypoxic HT1080 cells (Western blot); type: cell-based, human; conditions: 2.5 μM, hypoxia
Procedure: A. Effect of irestatin 9389 on PERK and ATF6 pathways. HT1080 cells were treated with vehicle alone (lanes 1-4) or 2.5 μM irestatin 9389 (lanes 5-8) and cultured under aerobic conditions for 18 hours (N) or shifted to hypoxia for the indicated times. Protein lysates were analyzed by Western blot analysis using antisera specific for ATF6 (top), CHOP/GADD153 (middle) or actin (bottom). Arrow indicates the cleaved, transcriptionally active form of ATF6. B. Cleavage of caspase-3 in irestatin-treated cells under hypoxia. HT1080 cells were cultured in normoxia (N) or under hypoxia for 36 hours (H 36) in absence or presence of irestatin 9389 (2.5 μM). Arrows indicate proteolytically cleaved caspase-3. C. Colony formation assay. HT1080 cells were treated as in B under normoxia (N) or hypoxia for 48 hours (H 48). Cells were harvested, counted, and allowed to grow under normal culture conditions for 11-12 days. Colonies were visualized with crystal violet staining. D. Quantification of clonogenic survival assay. Values represent the mean+/−SEM from at least 4 independent experiments. E. TUNEL staining of cells treated as in C. F. Quantification of TUNEL-positive cells. Values represent the mean+/−SEM from at least 3 experiments. […] Cells were harvested at the indicated times and counted by hemocytometer. Values represent the mean calculated from triplicate experiments +/−SEM. […]

[1] = test system: HT1080 tet-off Flag-XBP-1s cells; assay: Colony formation of HT1080 tet-off Flag-XBP-1s cells under hypoxia; type: cell-based, human; conditions: 2.5 μM, no dox, hypoxia 48 hours

SMILES: Cc1csc(NC(=O)CSc2nc3c(c(C(F)(F)F)c2C#N)CCC3)n1 [Compound 9389]
- proteolytic cleavage of ATF6 into active 50 kDa form (ATF6): significantly increased
- survival of hypoxic cells expressing Flag-XBP-1s [1]: minimal effect
